Measurements reported in patent US10336702B2, “Pharmaceutically active compounds” (BERGENBIO ASA, priority 2015, dated 2019).

Columns and labels:
p-Akt1 in LNCaP cells = biological target: T1, p-Akt1 in LNCaP cells (Homo sapiens, UniProt P31749); experiment: Phospho-Akt cellular SureFire assay, p-Akt1 in LNCaP cells; format: cell-based; conditions: read-out: Biological Assay 2 IC50 (nM) Akt1 LNCaP
T1 construct: SureFire assays to detect cellular p-Akt1, p-Akt2 and p-Akt3 levels in WM115 cells (Akt2/3) and LNCaP cells (Akt1); endogenous in cells; host or cells: LNCaP (ECACC 89110211)
Description: Biological Assay 2: Phospho-Akt (p-Akt) Cellular SureFire Assays
The following describes SureFire assays to detect cellular p-Akt1, p-Akt2 and p-Akt3 levels in WM115 cells (Akt2/3) and LNCaP cells (Akt1). In the case of Akt2 and Akt3, Streptavidin-coated donor beads capture a biotinylated anti-mouse antibody that in turn recognises a mouse total Akt antibody which is specific to each isoform. The protein A-conjugated acceptor beads capture an antibody that recognises the phosphoprotein. Similarly in the Akt1 kit, the donor and acceptor beads are used to capture each antibody pair consisting of an antibody that specifically recognises Akt1 as well as an antibody that recognises the phosphoprotein. In each case, close proximity of the beads allows energy transfer from donor to acceptor.
AlphaScreen® SureFire™ Phospho-Akt1 (pThr308) Kit from Perkin Elmer (TGRA2S10K)
LNCaP cells (ECACC, 89110211) cultured in RPMI-1640 culture media (Fisher, 10665193) supplemented with 2 mM L-glutamine, 1% sodium pyruvate and 10% FBS
Cell treatment: 1×10^5 WM115 cells or 5×10^4 LNCaP cells were seeded into each well of a 96 well poly-D-Lysine coated tissue culture plate and incubated overnight at 37° C.+5% CO2. Media was removed from cells and replaced with assay buffer consisting of the full culture media described above but with 0.1% FBS instead of 10% FBS. Only WM115 cells were stimulated at 37° C.+5% CO2 for 10 min with 5 μL insulin at a final concentration of 100 nM. Cells were incubated with 5 μL of test compound at a final DMSO concentration of 0.3% for 15 min at 37° C.+5% CO2. Cell lysis was carried out according to kit instructions.
Assay format (performed in subdued lighting): 4 μL cell lysate and 5 μL reaction buffer were incubated together in the dark at room temperature for 2 h. Reaction buffer was supplemented with a 1/5 dilution of activation buffer, a 1/50 dilution of acceptor beads and in the case of the custom kits, antibodies were added at dilutions of 1/20,000 for Akt2 and 1/2,000 for Akt3.
2 μL dilution buffer, supplemented with a 1/20 dilution of donor beads was added to each well and incubated for a further 2 h. Plates were read with the EnVision® Multilabel Plate Reader and using the AlphaScreen settings. Compound IC50 was determined using a 4-parameter equation.

p-Akt3 in WM115 cells = biological target: T2, p-Akt3 in WM115 cells (Homo sapiens, UniProt Q9Y243); experiment: Phospho-Akt cellular SureFire assay, p-Akt3 in WM115 cells; format: cell-based; conditions: insulin stimulated, read-out: Biological Assay 2 IC50 (nM) Akt3 WM115
T2 construct: SureFire assays to detect cellular p-Akt1, p-Akt2 and p-Akt3 levels in WM115 cells (Akt2/3) and LNCaP cells (Akt1); endogenous in cells; host or cells: WM115 (ECACC 91061232), insulin-stimulated
Procedure, shortened: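 pThr308-Akt3 in lysates was quantified by bead-proximity SureFire detection, pairing a phospho-specific antibody with a total Akt3 antibody. Before lysis, WM115 cells in 0.1% FBS medium were treated for 15 min at 37 °C with compound (final DMSO 0.3%), following a 10 min stimulation with 100 nM insulin. IC50 was obtained by 4-parameter fitting.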

p-Akt2 in WM115 cells = biological target: T3, p-Akt2 in WM115 cells (Homo sapiens, UniProt P31751); experiment: Phospho-Akt cellular SureFire assay, p-Akt2 in WM115 cells; format: cell-based; conditions: insulin stimulated, read-out: Biological Assay 2 IC50 (nM) Akt2 WM115
T3 construct: SureFire assays to detect cellular p-Akt1, p-Akt2 and p-Akt3 levels in WM115 cells (Akt2/3) and LNCaP cells (Akt1); endogenous in cells; host or cells: WM115 (ECACC 91061232), insulin-stimulated
Procedure, shortened: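 Readout is a bead-proximity SureFire assay pairing a pThr308 Akt antibody with a total Akt2 antibody, lysate and beads incubated 2 h plus 2 h at room temperature in the dark. Before lysis, serum-starved WM115 cells received 100 nM insulin (10 min), then test compound (15 min, 0.3% DMSO); IC50 by 4-parameter equation.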

Akt1 = biological target: T4, Akt1 (Homo sapiens, UniProt P31749); experiment: Akt activation assay (PDK1-mediated activation, LANCE Ultra crosstide TR-FRET), Akt1; format: biochemical; conditions: read-out: Biological Assay 1 IC50 (nM) Akt1
T4 construct: unspecified tag, removed (detagged) (cleaved yes); purchased SignalChem and Proteros (Akt1); Merck Millipore (PDK1) 14-452 (PDK1); none given for Akt1
Procedure, shortened: (§1)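 This TR-FRET readout (Eu-anti-phospho-crosstide antibody, 665/615 nm) measured PDK1-driven activation of Akt. Compound was first preincubated with each Akt isoform: Akt1 5 nM; Akt2 15 nM SignalChem or 5 nM Proteros; Akt3 3 nM SignalChem or 5 nM Proteros. Reactions then ran 30 min with 5 nM PDK1, lipid vesicles containing 0.55 µM PtdIns(3,4,5)P3, 100 µM ATP and 100 nM crosstide at pH 7.5, and IC50 came from a 4-parameter equation.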

Akt2 = biological target: T5, Akt2 (Homo sapiens, UniProt P31751); experiment: Akt activation assay (PDK1-mediated activation, LANCE Ultra crosstide TR-FRET), Akt2; format: biochemical; conditions: read-out: Biological Assay 1 IC50 (nM) Akt2
T5 construct: unspecified tag, removed (detagged) (cleaved yes); purchased SignalChem and Proteros (Akt2); Merck Millipore (PDK1) 14-452 (PDK1); none given for Akt2
Procedure, shortened: as §1

Akt3 = biological target: T6, Akt3 (Homo sapiens, UniProt Q9Y243); experiment: Akt activation assay (PDK1-mediated activation, LANCE Ultra crosstide TR-FRET), Akt3; format: biochemical; conditions: read-out: Biological Assay 1 IC50 (nM) Akt3
T6 construct: unspecified tag, removed (detagged) (cleaved yes); purchased SignalChem and Proteros (Akt3); Merck Millipore (PDK1) 14-452 (PDK1); none given for Akt3
Procedure, shortened: as §1

T1 sequence (P31749 whole entry): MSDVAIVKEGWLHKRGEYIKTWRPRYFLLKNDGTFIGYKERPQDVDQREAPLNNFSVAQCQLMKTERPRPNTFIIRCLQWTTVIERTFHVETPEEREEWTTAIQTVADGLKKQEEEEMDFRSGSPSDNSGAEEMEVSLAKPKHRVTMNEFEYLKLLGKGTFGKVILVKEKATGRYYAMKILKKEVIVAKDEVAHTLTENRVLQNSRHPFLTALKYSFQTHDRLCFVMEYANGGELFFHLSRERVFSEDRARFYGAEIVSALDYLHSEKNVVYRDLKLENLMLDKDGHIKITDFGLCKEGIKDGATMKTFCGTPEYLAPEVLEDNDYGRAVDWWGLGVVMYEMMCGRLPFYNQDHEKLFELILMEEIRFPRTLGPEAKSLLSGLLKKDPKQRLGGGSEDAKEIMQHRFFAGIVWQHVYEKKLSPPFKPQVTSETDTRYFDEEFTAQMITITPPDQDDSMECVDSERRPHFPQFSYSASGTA
T4 sequence (P31749 whole entry): as above
T5 sequence (P31751 whole entry): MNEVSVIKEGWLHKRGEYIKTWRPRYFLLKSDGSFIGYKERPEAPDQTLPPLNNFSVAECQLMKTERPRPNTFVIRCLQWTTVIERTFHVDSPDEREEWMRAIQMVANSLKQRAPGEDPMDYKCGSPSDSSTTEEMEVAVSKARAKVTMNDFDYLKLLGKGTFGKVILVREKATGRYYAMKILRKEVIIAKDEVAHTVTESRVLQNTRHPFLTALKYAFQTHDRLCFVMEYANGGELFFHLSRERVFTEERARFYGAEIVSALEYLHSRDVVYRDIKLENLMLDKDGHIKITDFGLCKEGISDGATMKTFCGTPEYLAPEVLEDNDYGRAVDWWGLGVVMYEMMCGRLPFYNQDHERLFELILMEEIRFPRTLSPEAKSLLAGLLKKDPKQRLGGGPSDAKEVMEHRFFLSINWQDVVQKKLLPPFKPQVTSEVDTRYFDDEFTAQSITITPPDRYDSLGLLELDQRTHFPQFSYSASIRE
T3 sequence (P31751 whole entry): as above
T6 sequence (Q9Y243 whole entry): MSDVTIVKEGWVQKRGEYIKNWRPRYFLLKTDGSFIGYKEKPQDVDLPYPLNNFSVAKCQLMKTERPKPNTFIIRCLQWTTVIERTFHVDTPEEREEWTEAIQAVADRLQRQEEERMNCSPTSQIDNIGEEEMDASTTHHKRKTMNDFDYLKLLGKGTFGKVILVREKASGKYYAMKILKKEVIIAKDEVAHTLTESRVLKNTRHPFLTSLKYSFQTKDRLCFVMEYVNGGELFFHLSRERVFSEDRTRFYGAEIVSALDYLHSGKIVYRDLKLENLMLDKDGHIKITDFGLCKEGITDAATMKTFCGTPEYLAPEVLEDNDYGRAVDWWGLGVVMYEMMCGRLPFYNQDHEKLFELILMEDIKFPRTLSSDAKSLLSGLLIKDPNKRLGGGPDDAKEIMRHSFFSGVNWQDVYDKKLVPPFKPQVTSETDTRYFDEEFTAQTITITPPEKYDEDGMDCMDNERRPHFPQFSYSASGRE
T2 sequence (Q9Y243 whole entry): as above

IC50 (p-Akt1 in LNCaP cells) [nM]	IC50 (p-Akt3 in WM115 cells) [nM]	IC50 (p-Akt2 in WM115 cells) [nM]	IC50 (Akt1) [nM]	IC50 (Akt2) [nM]	IC50 (Akt3) [nM]	SMILES
2900	77	1200	8800	130	7	CCOC(=O)N(C)[C@H]1CC[C@H](CC(=O)Nc2cc(-c3ccccc3)c(-c3ccc([C@]4(N)C[C@](C)(O)C4)cc3)cn2)CC1 [Example A73, Ethyl (trans-4-(2-((5-(4-(trans-1-amino-3-hydroxy-3-methylcyclobutyl)phenyl)-4-phenylpyridin-2-yl)amino)-2-oxoethyl)cyclohexyl)(methyl)carbamate]
> 30000	340	8700	> 30000	3500	61	CC(C)(C)CC(=O)N[C@H]1CC[C@H](CC(=O)Nc2cnc(-c3ccc(C(C)(C)N)cc3)c(-c3ccccc3)c2)CC1 [Example A37, N-(trans-4-(2-((6-(4-(2-aminopropan-2-yl)phenyl)-5-phenylpyridin-3-yl)amino)-2-oxoethyl)cyclohexyl)-3,3-dimethylbutanamide]
> 30000	670	9100	8900	1500	190	COC(=O)N(C(C)C)[C@H]1CC[C@H](CC(=O)Nc2cnc(-c3ccc(C4(N)CCC4)cc3)c(-c3ccccc3)c2)CC1 [Example 51, Methyl (trans-4-(2-((6-(4-(1-aminocyclobutyl)phenyl)-5-phenylpyridin-3-yl)amino)-2-oxoethyl)cyclohexyl)(isopropyl)carbamate]
> 30000	680	18000	> 30000	> 30000	4100	CN(C(=O)C1CC1)[C@H]1CC[C@H](CC(=O)Nc2cnc(-c3ccc(C(C)(C)N)c(F)c3)c(-c3ccccc3)c2)CC1 [Example 53, N-(trans-4-(2-((6-(4-(2-aminopropan-2-yl)-3-fluorophenyl)-5-phenylpyridin-3-yl)amino)-2-oxoethyl)cyclohexyl)-N-methylcyclopropanecarboxamide]
> 30000	190	6300	> 30000	2400	1000	CC(C)(N)c1ccc(-c2ncc(NC(=O)C[C@H]3CC[C@H](C(=O)N4CCOCC4)CC3)cc2-c2ccccc2)cc1 [Example A46, N-(6-(4-(2-aminopropan-2-yl)phenyl)-5-phenylpyridin-3-yl)-2-(trans-4-(morpholine-4-carbonyl)cyclohexyl)acetamide]
> 30000	230	3800	> 30000	> 30000	100	COC1(OC)CCC(CC(=O)Nc2cnc(-c3ccc(C4(N)COC4)cc3)c(-c3ccccc3)c2)CC1 [Example 36, N-(6-(4-(3-aminooxetan-3-yl)phenyl)-5-phenylpyridin-3-yl)-2-(4,4-dimethoxycyclohexyl)acetamide]
> 30000	480	12000	> 30000	–	2600	COC(=O)N(C)[C@H]1CC[C@H](C(C)C(=O)Nc2cnc(-c3ccc(C(C)(C)N)cc3)c(-c3ccccc3)c2)CC1 (stereo partly drawn) [Example A45, Methyl (trans-4-(1-((6-(4-(2-aminopropan-2-yl)phenyl)-5-phenylpyridin-3-yl)amino)-1-oxopropan-2-yl)cyclohexyl)(methyl)carbamate]
9800	100	2500	–	540	92	CC(=O)N(C)[C@H]1CC[C@H](CC(=O)Nc2cc(-c3ccccc3)c(-c3ccc(C4(N)CCC4)cc3)cn2)CC1 [Example 33, N-(5-(4-(1-aminocyclobutyl)phenyl)-4-phenylpyridin-2-yl)-2-(trans-4-(N-methylacetamido)cyclohexyl)acetamide]
8800	220	3500	–	290	24	CN(C(=O)C1CC1)[C@H]1CC[C@H](CC(=O)Nc2cc(-c3ccccc3)c(-c3ccc(C4(N)CCC4)cc3)cn2)CC1 [Example A72, N-(trans-4-(2-((5-(4-(1-aminocyclobutyl)phenyl)-4-phenylpyridin-2-yl)amino)-2-oxoethyl)cyclohexyl)-N-methylcyclopropanecarboxamide]
> 21000	240	6400	–	970	280	COC(=O)N(C)[C@H]1CC[C@H](C(C)C(=O)Nc2cnc(-c3ccc(C4(N)CCC4)cc3)c(-c3ccccc3)c2)CC1 (relative stereo) [Example 54, Methyl (trans-4-(1-((6-(4-(1-aminocyclobutyl)phenyl)-5-phenylpyridin-3-yl)amino)-1-oxopropan-2-yl)cyclohexyl)(methyl)carbamate]
2600	15	390	–	78	11	COC(=O)N[C@H]1CC[C@H](CC(=O)Nc2cc(-c3ccccc3)c(-c3ccc([C@]4(N)C[C@](C)(O)C4)cc3)cn2)CC1 [Example 103, Methyl (trans-4-(2-((5-(4-(trans-1-amino-3-hydroxy-3-methylcyclobutyl)phenyl)-4-phenylpyridin-2-yl)amino)-2-oxoethyl)cyclohexyl)carbamate]
> 30000	670	15000	–	630	22	COC(=O)N(C)[C@H]1CC[C@H](CC(=O)Nc2cc(-c3ccccc3)c(-c3ccc([C@]4(N)C[C@H](F)C4)cc3)nn2)CC1 [Example A60, Methyl (trans-4-(2-((6-(4-(trans-1-amino-3-fluorocyclobutyl)phenyl)-5-phenylpyridazin-3-yl)amino)-2-oxoethyl)cyclohexyl)(methyl)carbamate]
7900	11	480	–	190	8	CC(=O)N(C)[C@H]1CC[C@H](CC(=O)Nc2cc(-c3ccccc3)c(-c3ccc([C@]4(N)C[C@](C)(O)C4)cc3)cn2)CC1 [Example A58, N-(5-(4-(trans-1-amino-3-hydroxy-3-methylcyclobutyl)phenyl)-4-phenylpyridin-2-yl)-2-(trans-4-(N-methylacetamido)cyclohexyl)acetamide]
> 30000	130	1500	–	240	170	CC(=O)N[C@H]1CC[C@H](C(C)C(=O)Nc2cnc(-c3ccc(C4(N)CCC4)cc3)c(-c3ccccc3)c2)CC1 (relative stereo) [Example 41, 2-(trans-4-acetamidocyclohexyl)-N-(6-(4-(1-aminocyclobutyl)phenyl)-5-phenylpyridin-3-yl)propanamide]
